Like-named read-outs stand apart in the source and are kept apart here.
Assays:
[1] = target: Leishmania donovani Topoisomerase 1 (LdTop1) (Leishmania donovani, UniProt A0A3Q8IHS4+Q8WQM6); assay: Plasmid DNA relaxation assay, LdTop1 (simultaneous incubation); format: biochemical
Experimental: (§1) To investigate the inhibitory effect of our library compounds on the DNA relaxation activity of the recombinant Human and Leishmania topoisomerase 1 (Table 2), assays were performed involving supercoiled plasmid DNA, the enzymes (HTop1 and LdTop1) and our molecules. The enzymes were purified by the standard literature procedure.
All the experiments were conducted thrice and representative data from once set of them are expressed as mean ± SD.
(§2) The type I DNA topoisomerase are assayed by decreased mobility of the relaxed isomers of supercoiled pBS (SK^+) [pBlue-script (SK^+)] DNA in agarose gel. The relaxation assay was carried out as described previously with LdTop1B and HTop I, diluted in the relaxation buffer (25 mM Tris–HCl, pH 7.5, 5% glycerol, 0.5 mM DTT, 10 mM MgCl2, 50 mM KCl, […] and […] BSA) and supercoiled plasmid pBS (SK^+) DNA (85–95% were negatively supercoiled, with remainder being nicked circles)[9][28][29]. The reconstituted enzyme LdTop1B was assayed at 50 mM KCl concentration as described before. For all kinetic studies, the reaction mixtures containing the buffer and DNA were heated to 37 °C before addition of the enzymes. The reactions were rapidly quenched using stop solution and kept on ice. The gels were stained with ethidium bromide (EtBr) ([…]) and the amount of supercoiled monomer DNA band fluorescence were quantified by integration using Gel Doc 2000 under UV illumination (Bio-Rad Quantity One Software), as described previously.
Cells harvested from 1 litre of culture were separately lysed by lysozyme/sonication, and the proteins were purified through Ni-NTA (Ni^2+-nitriloacetate-agarose column (Qiagen, Hilden, Germany) followed by a phospho-cellulose column (P11 cellulose; Whatman, Maidstone Kent, UK) as described previously. Finally, the purified proteins LdTOP1L and LdTOP1S were stored at −70 °C. The concentrations of each protein were quantified by using Bradford Reagent (PIERCE, Thermo Fisher Scientific Inc., Rockford, USA). Purified LdTOP1L was mixed with purified LdTOP1S at a molar ratio of 1:1 to a total protein concentration of 0.5 mg/ml in reconstitution buffer [50 mM potassium phosphate, pH 7.5, 0.5 mM DTT, 1 mM EDTA, 0.1 mM PMSF and 10% (v/v) glycerol]. The mixture was dialyzed overnight at 4 °C and dialyzed fractions were used for plasmid relaxation activity.

Human Top1 (HTop1) = target: T1, Human Top1 (HTop1) (Homo sapiens, UniProt P11387); assay: Plasmid DNA relaxation assay, HTop1; format: biochemical; conditions: averages of three experiments, read-out: HTop1 inhibition (EC50)
T1 construct: made in house; host or cells: Sf-9 insect cells infected with recombinant baculovirus (gift from Prof. J. J. Champoux)
T1 sequence (P11387 1-765): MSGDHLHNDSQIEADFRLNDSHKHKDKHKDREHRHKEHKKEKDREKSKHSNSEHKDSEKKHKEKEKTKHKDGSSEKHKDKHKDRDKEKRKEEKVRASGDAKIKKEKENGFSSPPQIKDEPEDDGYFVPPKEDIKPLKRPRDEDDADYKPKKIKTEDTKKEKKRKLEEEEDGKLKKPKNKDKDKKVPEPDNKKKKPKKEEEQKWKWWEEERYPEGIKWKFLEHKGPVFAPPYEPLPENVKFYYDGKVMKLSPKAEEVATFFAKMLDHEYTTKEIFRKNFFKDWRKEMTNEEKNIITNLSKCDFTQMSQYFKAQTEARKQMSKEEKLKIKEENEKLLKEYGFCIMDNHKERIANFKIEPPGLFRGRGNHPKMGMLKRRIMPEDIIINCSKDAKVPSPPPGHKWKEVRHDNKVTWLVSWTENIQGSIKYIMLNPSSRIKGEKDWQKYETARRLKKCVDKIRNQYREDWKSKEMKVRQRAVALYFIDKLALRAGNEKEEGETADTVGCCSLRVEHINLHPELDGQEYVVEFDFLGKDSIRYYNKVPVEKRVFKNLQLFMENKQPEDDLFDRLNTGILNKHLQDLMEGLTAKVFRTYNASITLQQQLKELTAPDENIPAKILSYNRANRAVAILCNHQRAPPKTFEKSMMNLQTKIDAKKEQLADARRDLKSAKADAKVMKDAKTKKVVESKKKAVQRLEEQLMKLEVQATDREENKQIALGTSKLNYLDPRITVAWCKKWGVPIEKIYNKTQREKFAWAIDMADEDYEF
Experimental: as §1, §2
The wild-type HTop1 (91 kDa) was purified from Sf-9 insect cells infected with the recombinant baculovirus (a kind gift from Prof. J. J. Champoux). Approximately, 1 * 10^9 Sf-9 cells were infected with the recombinant virus, and cells were harvested after 48-h of infection. The cells were lysed and enzyme was purified as described. Briefly, at 48 h post-infection, approximately 3 * 10^9 Sf-9 cells were harvested by centrifugation for 5 min at 400 * g. The cells were resuspended in 1 liter of ice-cold phosphate-buffered saline and centrifuged for 5 min at 400 * g. The nuclei were washed twice in 80 ml of lysis buffer minus Triton X-100 and resuspended in 40 ml of resuspension buffer (50 mM KCl, 10 mM Tris-Cl, pH 7.5, 2 mM MgCl2, 25 mM DTT, 0.4 mg/ml phenylmethylsulfonyl fluoride, 0.12 mg/ml aprotinin). The nuclear extract was stirred for 5 min at ~200 rpm. With continued stirring, 50 ml of polyethylene glycol (PEG) buffer (18% PEG 8000, 1 M NaCl, 10% glycerol) was added dropwise in order to precipitate the DNA. The PEG precipitate was pelleted by centrifugation and the resulting PEG supernatant was dialyzed against 4 liters of potassium phosphate buffer. The dialyzed PEG supernatant passed over a 10-ml bed volume of phosphocellulose (Whatman P11) equilibrated with PPB. The HTop1 flowed through the PS column and then passed over a Mono Q column followed by loaded onto a Mono S column. The Mono S column was eluted with a 25-ml 50–200 mM KPO4, pH 7.4, gradient. […] The peak Mono S fractions were pooled, concentrated with an Amicon ultrafiltration cell, dialyzed into storage buffer (50% glycerol, 10 mM Tris-hydrochloride, pH 7.5, 1 mM DTT, 1 mM EDTA), and stored at −20 °C.

[2] = LdTop1 relaxation, 12.5 uM, read-out: % inhibition, mean data
[3] = LdTop1 relaxation, 25 uM, read-out: % inhibition, mean data
[4] = LdTop1 relaxation, 50 uM, read-out: % inhibition, mean data
[5] = LdTop1 relaxation, 100 uM, read-out: % inhibition, mean data
[6] = plasmid DNA relaxation, averages of three experiments, read-out: LDTop1 inhibition (EC50)
[7] = read-out: % inhibition (CPT 100%), data 1, LdTop1 relaxation, 12.5 uM
[8] = read-out: % inhibition (CPT 100%), data 1, LdTop1 relaxation, 25 uM
[9] = read-out: % inhibition (CPT 100%), data 1, LdTop1 relaxation, 50 uM
[10] = read-out: % inhibition (CPT 100%), data 1, LdTop1 relaxation, 100 uM
[11] = read-out: % inhibition (CPT 100%), data 2, LdTop1 relaxation, 12.5 uM
[12] = read-out: % inhibition (CPT 100%), data 2, LdTop1 relaxation, 25 uM
[13] = read-out: % inhibition (CPT 100%), data 2, LdTop1 relaxation, 50 uM
[14] = read-out: % inhibition (CPT 100%), data 2, LdTop1 relaxation, 100 uM
[15] = supplement sheet Ld Top 1 data, concentrations in uM, read-out: EC50 (LdTop1, supplement sheet)

Chain of Leishmania donovani Topoisomerase 1 (LdTop1) (Q8WQM6 entry or part of it): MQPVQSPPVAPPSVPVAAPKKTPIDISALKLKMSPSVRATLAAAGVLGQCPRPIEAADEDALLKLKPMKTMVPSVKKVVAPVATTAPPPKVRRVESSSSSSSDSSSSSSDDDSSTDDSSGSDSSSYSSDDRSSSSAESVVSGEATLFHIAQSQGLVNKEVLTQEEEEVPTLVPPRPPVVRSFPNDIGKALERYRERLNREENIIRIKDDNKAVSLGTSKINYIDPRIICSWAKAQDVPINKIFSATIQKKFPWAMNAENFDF
Chain of Leishmania donovani Topoisomerase 1 (LdTop1) (A0A3Q8IHS4 entry or part of it): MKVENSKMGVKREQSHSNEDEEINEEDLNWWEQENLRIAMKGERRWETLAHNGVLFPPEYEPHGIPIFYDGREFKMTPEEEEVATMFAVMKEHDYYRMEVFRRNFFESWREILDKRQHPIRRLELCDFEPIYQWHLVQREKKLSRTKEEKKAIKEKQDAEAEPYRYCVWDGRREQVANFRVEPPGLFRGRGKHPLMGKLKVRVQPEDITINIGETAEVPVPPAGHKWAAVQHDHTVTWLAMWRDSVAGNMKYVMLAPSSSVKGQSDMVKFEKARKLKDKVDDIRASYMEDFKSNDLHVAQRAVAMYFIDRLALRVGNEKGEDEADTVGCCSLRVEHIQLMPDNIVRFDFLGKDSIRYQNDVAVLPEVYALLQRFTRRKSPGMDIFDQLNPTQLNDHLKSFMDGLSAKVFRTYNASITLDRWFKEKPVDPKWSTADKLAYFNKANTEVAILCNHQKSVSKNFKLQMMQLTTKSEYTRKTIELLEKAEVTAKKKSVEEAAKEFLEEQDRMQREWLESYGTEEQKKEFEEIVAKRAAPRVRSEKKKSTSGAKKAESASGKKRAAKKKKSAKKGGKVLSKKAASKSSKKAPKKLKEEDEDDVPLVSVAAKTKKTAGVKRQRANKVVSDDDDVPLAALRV

Row | inhibition at 12.5 µM [1, 2] [%] | inhibition at 25 µM [1, 3] [%] | inhibition at 50 µM [1, 4] [%] | inhibition at 100 µM [1, 5] [%] | LdTop1 inhibitory activity ([1]; plasmid DNA relaxation) | EC50 [1, 6] [µM] | inhibition at 12.5 µM [1, 7] [%] | inhibition at 25 µM [1, 8] [%] | inhibition at 50 µM [1, 9] [%] | inhibition at 100 µM [1, 10] [%] | inhibition at 12.5 µM [1, 11] [%] | inhibition at 25 µM [1, 12] [%] | inhibition at 50 µM [1, 13] [%] | inhibition at 100 µM [1, 14] [%] | EC50 [1, 15] [µM] | EC50 (Human Top1 (HTop1)) [µM] | SMILES | also measured
1 | 52.2 | 68.2 | 88.4 | 93 | considerable activity | 7.51 ± 1.02 | 52.9 | 69.6 | 89.7 | 95.5 | 51.4 | 66.8 | 87.2 | 90.5 | 7.51 | > 100 | Cc1cc2c(c(=O)[nH]1)C(=O)O/C2=C\c1cccc(Br)c1 [Compound 9] | –
2 | 52.5 | 67.3 | 87.5 | 91.3 | considerable activity | 9.06 ± 1.77 | 51.2 | 68.8 | 88.7 | 93.7 | 53.7 | 65.8 | 86.2 | 88.9 | 9.06 | > 100 | Cc1cc2c(c(=O)[nH]1)C(=O)O/C2=C\c1ccccc1C(F)(F)F [Compound 3] | –
3 | – | – | – | – | inactive | > 100 | – | – | – | – | – | – | – | – | – | > 100 | COc1cccc(/C=C2\OC(=O)c3c2cc(C)[nH]c3=O)c1OC [Compound 12] | –
4 | – | – | – | – | complete loss of activity | > 100 | – | – | – | – | – | – | – | – | – | > 100 | Cc1cc2c(c(=O)[nH]1)C(=O)O/C2=C\c1ccc2c(c1)OCO2 [Compound 6] | –
5 | – | – | – | – | – | > 100 | – | – | – | – | – | – | – | – | – | > 100 | Cc1cc2c(c(=O)[nH]1)C(=O)O/C2=C\c1ccc(I)cc1 [Compound 18] | –
6 | 30.6 | 48.1 | 61.5 | 87.2 | considerable activity | – | 32 | 46.9 | 58.6 | 88.2 | 29.1 | 49.4 | 64.3 | 86.2 | 35.6 | > 100 | Cc1cc2c(c(=O)[nH]1)C(=O)O/C2=C\c1cccc(Cl)c1 [Compound 14] | % inhibition (CPT 100%), data 1 ([1]; LdTop1 relaxation, 12.5 uM): 32.026%; % inhibition (CPT 100%), data 1 ([1]; LdTop1 relaxation, 25 uM): 46.8807%; % inhibition, mean data ([1]; LdTop1 relaxation, 50 uM): 61.4846%; % inhibition (CPT 100%), data 1 ([1]; LdTop1 relaxation, 100 uM): 88.2434%; % inhibition (CPT 100%), data 2 ([1]; LdTop1 relaxation, 100 uM): 86.2086%; % inhibition, mean data ([1]; LdTop1 relaxation, 100 uM): 87.226%
7 | – | – | – | – | – | > 100 | – | – | – | – | – | – | – | – | – | > 100 | Cc1cc2c(c(=O)[nH]1)C(=O)O/C2=C\c1ccc(Br)cc1 [Compound 10] | –
8 | – | – | – | – | no inhibitory activity at all | > 100 | – | – | – | – | – | – | – | – | – | > 100 | Cc1cc2c(c(=O)[nH]1)C(=O)O/C2=C\c1cccc2ccccc12 [Compound 11] | –

From article PMC4879574, “Identification of Leishmania donovani Topoisomerase 1 inhibitors via intuitive scaffold hopping and bioisosteric modification of known Top 1 inhibitors” (Scientific Reports, 2016)
